Data published in patent US20040014734A1, “Farnesoid X-activated receptor agonists” (priority 2002, published 2004).

Target: T1, FXR (Rattus norvegicus, UniProt Q62735)
T1 construct: expressed in transfected cells; host or cells: Human embryonic kidney 293 cells
Experiment: Reporter gene transactivation assay
Type: cell-based
Settings: Human embryonic kidney 293 cells transfected with rFXR, hRXRβ, hGrip1 and DR-4 or IR-1 luciferase reporter
Protocol: Human embryonic kidney 293 cells were seeded into 48-well culture plates at 2×10^4 cells per well in a Dulbecco's modified Eagle's medium (DMEM) supplemented with 10% fetal bovine serum. After 24 hours, cells were transfected by a calcium phosphate coprecipitation method with 250 ng of the pGL3/DR-4-luc reporter gene which consists of three copies of AGGTCAagccAGGTCA (DR-4) or pGL3/IR-1-luc which consists of three copies of GGGTCAcTGACCC (IR-1) fused to nucleotides −56 to +109 of the human c-fos promoter in front of the firefly luciferase gene in the plasmid basic pGL3 (Promega, Madison, Wis.), 40 ng pSG5/hRXRβ, 40 ng pR5/rFXR,10 ng pSG5/hGrip1, 0.4 ng CMV/R-luc (transfection normalization reporter, Promega) and 250 ng carrier DNA per well. […] After another 12-24 hours, cells were washed with PBS and refed with DMEM supplemented with 4% delipidated fetal bovine serum. Chemicals dissolved in ethanol were added in duplicate to the medium so that the final concentration of alcohol was 0.2%. After 24-48 hours, cells were harvested and luciferase activity was measured with a commercial kit (Promega Dual luciferase II) on a Monolight luminometer (Becton Dickenson, Mountain View, Calif.). FXR dimerizes with RXR to form an FXR/RXR heterodimer, which binds to both DR-4 response elements and IR-1 response elements in a ligand-dependent manner and transactivates the reporter gene expression.

T1 sequence (Q62735 whole entry): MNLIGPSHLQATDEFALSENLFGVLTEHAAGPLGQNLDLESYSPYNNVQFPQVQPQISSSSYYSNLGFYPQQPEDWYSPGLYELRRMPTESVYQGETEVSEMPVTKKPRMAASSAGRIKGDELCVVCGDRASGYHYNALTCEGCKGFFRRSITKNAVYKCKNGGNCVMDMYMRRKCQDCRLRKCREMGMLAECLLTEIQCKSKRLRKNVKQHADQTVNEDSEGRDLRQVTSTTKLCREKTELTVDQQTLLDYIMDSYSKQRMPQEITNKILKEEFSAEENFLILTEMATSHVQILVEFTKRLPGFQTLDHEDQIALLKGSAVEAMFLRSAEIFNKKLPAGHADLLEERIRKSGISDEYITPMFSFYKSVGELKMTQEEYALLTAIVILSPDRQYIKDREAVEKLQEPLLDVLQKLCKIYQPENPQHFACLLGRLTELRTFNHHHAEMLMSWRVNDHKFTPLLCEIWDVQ
T1 sequence (P28702 whole entry partner): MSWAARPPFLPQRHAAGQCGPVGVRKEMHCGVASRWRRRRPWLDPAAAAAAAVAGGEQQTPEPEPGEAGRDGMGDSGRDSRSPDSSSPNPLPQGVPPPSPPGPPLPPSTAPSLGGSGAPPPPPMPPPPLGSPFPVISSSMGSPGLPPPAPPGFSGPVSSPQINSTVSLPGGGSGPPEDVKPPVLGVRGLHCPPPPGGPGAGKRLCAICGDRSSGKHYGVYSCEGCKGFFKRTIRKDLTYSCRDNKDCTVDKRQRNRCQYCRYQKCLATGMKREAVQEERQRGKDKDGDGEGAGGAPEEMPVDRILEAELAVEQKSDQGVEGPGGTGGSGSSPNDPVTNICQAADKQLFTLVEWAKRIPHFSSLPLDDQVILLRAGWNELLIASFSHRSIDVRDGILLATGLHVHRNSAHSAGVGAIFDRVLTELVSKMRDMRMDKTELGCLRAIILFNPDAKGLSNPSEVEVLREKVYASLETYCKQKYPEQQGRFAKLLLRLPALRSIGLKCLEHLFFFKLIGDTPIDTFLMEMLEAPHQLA
T1 sequence (Q15596 whole entry partner): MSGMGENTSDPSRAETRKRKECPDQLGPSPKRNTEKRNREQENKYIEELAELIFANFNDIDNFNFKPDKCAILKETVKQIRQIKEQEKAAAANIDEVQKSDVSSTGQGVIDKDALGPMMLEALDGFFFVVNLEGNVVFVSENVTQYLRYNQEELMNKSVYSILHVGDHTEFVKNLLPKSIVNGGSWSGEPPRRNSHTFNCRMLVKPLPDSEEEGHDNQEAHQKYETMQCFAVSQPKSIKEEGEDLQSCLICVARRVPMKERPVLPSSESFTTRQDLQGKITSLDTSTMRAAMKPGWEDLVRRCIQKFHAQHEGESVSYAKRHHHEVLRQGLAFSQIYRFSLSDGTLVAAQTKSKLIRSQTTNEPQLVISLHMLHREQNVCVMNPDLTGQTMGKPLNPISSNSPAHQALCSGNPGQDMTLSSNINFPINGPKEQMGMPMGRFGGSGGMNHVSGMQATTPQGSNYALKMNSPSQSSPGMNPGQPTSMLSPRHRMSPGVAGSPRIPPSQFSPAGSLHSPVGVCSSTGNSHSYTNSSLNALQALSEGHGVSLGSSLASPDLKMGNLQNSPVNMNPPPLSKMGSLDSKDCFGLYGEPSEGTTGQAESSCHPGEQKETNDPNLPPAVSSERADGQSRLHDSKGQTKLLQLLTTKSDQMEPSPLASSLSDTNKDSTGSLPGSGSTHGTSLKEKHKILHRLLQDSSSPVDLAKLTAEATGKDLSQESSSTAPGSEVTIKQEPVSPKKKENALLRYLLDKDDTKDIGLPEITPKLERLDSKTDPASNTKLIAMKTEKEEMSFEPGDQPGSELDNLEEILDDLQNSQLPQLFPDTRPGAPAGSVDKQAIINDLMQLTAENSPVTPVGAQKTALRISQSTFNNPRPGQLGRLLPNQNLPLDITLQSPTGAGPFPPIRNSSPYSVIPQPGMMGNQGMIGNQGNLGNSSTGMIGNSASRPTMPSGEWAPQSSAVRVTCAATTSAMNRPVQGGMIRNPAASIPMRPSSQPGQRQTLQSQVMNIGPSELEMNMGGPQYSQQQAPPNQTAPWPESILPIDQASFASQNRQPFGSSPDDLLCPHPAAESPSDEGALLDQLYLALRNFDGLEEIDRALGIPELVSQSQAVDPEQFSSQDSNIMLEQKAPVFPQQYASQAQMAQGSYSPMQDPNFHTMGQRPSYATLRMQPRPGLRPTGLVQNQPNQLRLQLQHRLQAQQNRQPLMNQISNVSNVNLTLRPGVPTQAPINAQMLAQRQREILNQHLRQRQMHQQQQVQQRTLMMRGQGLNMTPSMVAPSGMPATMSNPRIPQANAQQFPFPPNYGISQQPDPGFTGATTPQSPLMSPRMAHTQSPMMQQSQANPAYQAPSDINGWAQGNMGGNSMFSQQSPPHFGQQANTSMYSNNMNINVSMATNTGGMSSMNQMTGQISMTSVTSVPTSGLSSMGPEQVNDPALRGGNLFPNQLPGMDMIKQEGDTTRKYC

Structure (SMILES)	agonists of FXF (reporter gene transactivation, luciferase activity)
C[C@H](CCC(=O)NCC(F)(F)F)[C@H]1CC[C@H]2[C@@H]3CC[C@@H]4CCCC[C@]4(C)[C@H]3CC[C@]12C [N-(2,2,2-trifluoroethyl)-5β-cholanoic acid-24-amide]	potent agonists
CCOC(=O)CNC(=O)CC[C@@H](C)[C@H]1CC[C@H]2[C@@H]3CC[C@@H]4CCCC[C@]4(C)[C@H]3CC[C@]12C [N-ethoxycarbonylmethyl-5β-cholanoic acid-24-amide]	potent agonists
CNC(=O)CC[C@@H](C)[C@H]1CC[C@H]2[C@@H]3CC[C@@H]4CCCC[C@]4(C)[C@H]3CC[C@]12C [N-methyl-5β-cholanoic acid-24-amide]	potent agonists
CNN(C)C(=O)CC[C@@H](C)[C@H]1CC[C@H]2[C@@H]3CC[C@@H]4CCCC[C@]4(C)[C@H]3CC[C@]12C [N-methyl-N-methylamino-5β-cholanoic acid-24-amide]	potent agonists
CC(CCS(=O)(=O)O)C1CCC2C3CCC4CCCCC4(C)C3CCC12C (centres unmarked) [cholanosulfonic acid, 3-(10,13-Dimethyl-hexadecahydro-cyclopenta[a]phenanthren-17-yl)-butane-1-sulfonic acid]	potent agonists
CC(CCC(=O)O)C1CCC2C3CC=C4C=CCCC4(C)C3CCC12C (centres unmarked) [Δ^3,5-cholanoic acid, 4-(10,13-Dimethyl-2,7,8,9,10,11,12,13,14,15,16,17-dodecahydro-1H-cyclopenta[a]phenanthren-17-yl)-pentanoic acid]	potent agonists

Second part, the molecule after the results:

agonists of FXF (reporter gene transactivation, luciferase activity)	Structure (SMILES)
potent agonists	C[C@H](CCC(=O)N(C)C)[C@H]1CC[C@H]2[C@@H]3CC[C@@H]4CCCC[C@]4(C)[C@H]3CC[C@]12C [N,N-dimethyl-5β-cholanoic acid-24-amide]
potent agonists	C[C@H](CCC(=O)NCCCl)[C@H]1CC[C@H]2[C@@H]3CC[C@@H]4CCCC[C@]4(C)[C@H]3CC[C@]12C [N-(2-chloroethyl)-5β-cholanoic acid-24-amide]
potent agonists	C[C@H](CCC(=O)NCC(=O)O)[C@H]1CC[C@H]2[C@@H]3CC[C@@H]4CCCC[C@]4(C)[C@H]3CC[C@]12C [N-carboxymethyl-5β-cholanoic acid-24-amide]
potent agonists	C[C@H](CCC(=O)NNC=O)[C@H]1CC[C@H]2[C@@H]3CC[C@@H]4CCCC[C@]4(C)[C@H]3CC[C@]12C [N-formylamino-5β-cholanoic acid-24-amide]
potent agonists	CON(C)C(=O)CC[C@@H](C)[C@H]1CC[C@H]2[C@@H]3CC[C@@H]4CCCC[C@]4(C)[C@H]3CC[C@]12C [N-methyl-N-methoxy-5β-cholanoic acid-24-amide]
potent agonists	C[C@H](CCC(=O)NCCS(=O)(=O)O)[C@H]1CC[C@H]2[C@@H]3CC[C@@H]4CCCC[C@]4(C)[C@H]3CC[C@]12C [N-sulfonylethyl-5β-cholanoic acid-24-amide]
potent agonists	C[C@H](CCC(=O)N(C)CC(=O)O)[C@H]1CC[C@H]2[C@@H]3CC[C@@H]4CCCC[C@]4(C)[C@H]3CC[C@]12C [cholamide, N-methyl-N-carboxymethyl-5β-cholanoic acid-24-amide]

Same assay, conditions: relative to GW4064

higher efficacy than GW4064, a known non-steroidal FXR agonist [times]	Structure (SMILES)
200	C[C@H](CCC(=O)N(C)CC(=O)O)[C@H]1CC[C@H]2[C@@H]3CC[C@@H]4CCCC[C@]4(C)[C@H]3CC[C@]12C [cholamide, N-methyl-N-carboxymethyl-5β-cholanoic acid-24-amide]
